Data taken from patent US4468511A, “C-20- And C-23-Modified macrolide derivatives” (Eli Lilly and Company, priority 1983, dated 1984).
≈ marks a conversion by molar mass, not a printed value. Like-named read-outs stand apart in the source and are kept apart here.

Experiments:
Format in all cases: cell-based
[1] = tested on: Pasteurella multocida 68C; assay: MIC, conventional broth-dilution microtiter test; settings: broth-dilution microtiter; Pasteurella multocida 68C; read-out: MIC
Procedure: (§1) Certain of the derivatives are active against some gram-negative bacteria, such as Pasteurella species. The MIC's in Table II were determined by standard agar-dilution assays. The MIC's in Table III were obtained using a conventional broth-dilution microtiter test.

[2] = tested on: Pasteurella hemolytica 41D; assay: MIC, conventional broth-dilution microtiter test; settings: broth-dilution microtiter; Pasteurella hemolytica 41D; read-out: MIC
Procedure: as §1

[3] = tested on: Pasteurella hemolytica 22C; assay: MIC, conventional broth-dilution microtiter test; settings: broth-dilution microtiter; Pasteurella hemolytica 22C; read-out: MIC
Procedure: as §1

[4] = tested on: Pasteurella multocida 22A; assay: MIC, conventional broth-dilution microtiter test; settings: broth-dilution microtiter; Pasteurella multocida 22A; read-out: MIC
Procedure: as §1

[5] = tested on: Pasteurella multocida 40G; assay: MIC, conventional broth-dilution microtiter test; settings: broth-dilution microtiter; Pasteurella multocida 40G; read-out: MIC
Procedure: as §1

[6] = tested on: Streptococcus sp. 80; assay: MIC, conventional broth-dilution microtiter test
Procedure: as §1

[7] = tested on: Mycoplasma gallisepticum 41313; assay: MIC, conventional broth-dilution microtiter test; settings: Mycoplasmoides gallisepticum
Procedure: as §1

[8] = tested on: Mycoplasma hyorhinis; assay: MIC, conventional broth-dilution microtiter test
Procedure: as §1

[9] = tested on: Pasteurella multocida 60A; assay: MIC, conventional broth-dilution microtiter test; settings: broth-dilution microtiter; Pasteurella multocida 60A, Avian isolate; read-out: MIC
Procedure: as §1

[10] = tested on: Pasteurella multocida 17E; assay: MIC, conventional broth-dilution microtiter test; settings: broth-dilution microtiter; Pasteurella multocida 17E, Bovine isolate; read-out: MIC
Procedure: as §1

[11] = tested on: Staphylococcus aureus; assay: MIC, conventional broth-dilution microtiter test; settings: broth-dilution microtiter, read-out: MIC
Procedure: as §1

[12] = tested on: Mycoplasma gallisepticum; assay: MIC, conventional broth-dilution microtiter test; settings: Mycoplasmoides gallisepticum
Procedure: as §1

[13] = tested on: Mycoplasma gallisepticum 34159; assay: MIC, conventional broth-dilution microtiter test; settings: Mycoplasmoides gallisepticum
Procedure: as §1

[14] = tested on: Pasteurella hemolytica 23C; assay: MIC, conventional broth-dilution microtiter test; settings: broth-dilution microtiter; Pasteurella hemolytica 23C; read-out: MIC
Procedure: as §1

[15] = tested on: Staphylococcus aureus V41; assay: MIC, standard agar-dilution assay
Procedure: as §1

[16] = tested on: Streptococcus pyogenes 9960; assay: MIC, standard agar-dilution assay; settings: agar-dilution, Streptococcus 9960, read-out: MIC
Procedure: as §1

[17] = tested on: Staphylococcus aureus X1.1; assay: MIC, standard agar-dilution assay; settings: Staphylococcus aureus, X1.1
Procedure: as §1

[18] = tested on: Klebsiella pneumoniae X26; assay: MIC, standard agar-dilution assay; settings: agar-dilution; Klebsiella pneumoniae X26; read-out: MIC
Procedure: as §1

[19] = tested on: Escherichia coli TEM; assay: MIC, standard agar-dilution assay; settings: agar-dilution; Escherichia coli TEM; read-out: MIC
Procedure: as §1

[20] = tested on: Streptococcus Group D X66; assay: MIC, standard agar-dilution assay; settings: agar-dilution; Streptococcus Group D X66; read-out: MIC
Procedure: as §1

[21] = tested on: Klebsiella pneumoniae KAE; assay: MIC, standard agar-dilution assay; settings: agar-dilution; Klebsiella pneumoniae KAE; read-out: MIC
Procedure: as §1

[22] = tested on: Escherichia coli EC14; assay: MIC, standard agar-dilution assay; settings: agar-dilution; Escherichia coli EC14; read-out: MIC
Procedure: as §1

[23] = tested on: Streptococcus pneumoniae Park I; assay: MIC, standard agar-dilution assay; settings: agar-dilution; Streptococcus pneumoniae Park I; read-out: MIC
Procedure: as §1

[24] = tested on: Streptococcus pyogenes C203; assay: MIC, standard agar-dilution assay; settings: agar-dilution; Streptococcus pyogenes C203; read-out: MIC
Procedure: as §1

[25] = tested on: Haemophilus influenzae C.L.; assay: MIC, standard agar-dilution assay; settings: agar-dilution; Haemophilus influenzae C.L., Ampicillin-sensitive strain; read-out: MIC
Procedure: (§2) The MIC's in Table II were determined by standard agar-dilution assays. The MIC's in Table III were obtained using a conventional broth-dilution microtiter test.

[26] = tested on: Staphylococcus aureus X400; assay: MIC, standard agar-dilution assay; settings: Staphylococcus aureus, X400
Procedure: as §2

[27] = tested on: Haemophilus influenzae 76; assay: MIC, standard agar-dilution assay; settings: agar-dilution; Haemophilus influenzae 76, Ampicillin-resistant strain; read-out: MIC
Procedure: as §2

[28] = tested on: Staphylococcus epidermidis EPI2; assay: MIC, standard agar-dilution assay; settings: agar-dilution; Staphylococcus epidermidis EPI2; read-out: MIC
Procedure: as §2

[29] = tested on: Staphylococcus aureus S13E; assay: microbe, parasite or virus in culture
Procedure: as §2

[30] = tested on: Staphylococcus epidermidis EPI1; assay: microbe, parasite or virus in culture
Procedure: as §2

[31] = tested on: Mycoplasma synoviae; assay: MIC, conventional broth-dilution microtiter test; settings: Mycoplasmopsis synoviae
Procedure: as §1

[32] = broth-dilution microtiter, Streptococcus sp. 80, read-out: MIC
[33] = broth-dilution microtiter, Mycoplasma gallisepticum 41313, Resistant strain, read-out: MIC
[34] = broth-dilution microtiter, Mycoplasma hyorhinis, read-out: MIC
[35] = broth-dilution microtiter, Mycoplasma gallisepticum 34159, Resistant strain, read-out: MIC

Row | Compound | MIC [1] [µg/mL] | MIC [2] [µg/mL] | MIC [3] [µg/mL] | MIC [4] [µg/mL] | MIC [5] [µg/mL] | MIC [9] [µg/mL] | MIC [10] [µg/mL] | MIC [11] [µg/mL] | MIC [12] [µg/mL] | MIC [14] [µg/mL] | MIC [16] [µg/mL] | MIC [17] [µg/mL] | MIC [18] [µg/mL] | MIC [19] [µg/mL] | MIC [20] [µg/mL] | MIC [21] [µg/mL] | MIC [22] [µg/mL] | MIC [23] [µg/mL] | MIC [24] [µg/mL] | MIC [25] [µg/mL] | also measured
1 | CCC1OC(=O)CC(O)C(C)C(OC2OC(C)C(OC3CC(C)(O)C(O)C(C)O3)C(N(C)C)C2O)C(CCN2C(=O)c3ccccc3C2=O)CC(C)C(=O)C=CC(C)=CC1CN1C(=O)c2ccccc2C1=O (stereo not drawn) [Compound 38, 20,23-Di-N-phthalimido-20,23-dideoxy-20-dihydro-DMT] | > 50 | > 50 | > 50 | > 50 | > 50 | > 50 | > 50 | 25 (≈ 24.9 µM) | 50 (≈ 49.9 µM) | > 50 | > 128 | 64 (≈ 63.9 µM) | > 128 | > 128 | > 128 | > 128 | > 128 | 16 (≈ 16 µM) | > 128 | > 128 | MIC ([6]; Streptococcus, SP.80): 50 µg/mL (≈ 49.9 µM); MIC [7]; 41313: 50 µg/mL (≈ 49.9 µM); MIC ([8]; Mycoplasma): 50 µg/mL (≈ 49.9 µM); MIC [13]; 34159: 50 µg/mL (≈ 49.9 µM); MIC ([15]; agar-dilution, Staphylococcus aureus V41, Penicillin-resistant strain, read-out: MIC): 16 µg/mL (≈ 16 µM); MIC [26]: 64 µg/mL (≈ 63.9 µM); MIC [27]: > 128 µg/mL; MIC [28]: 16 µg/mL (≈ 16 µM); MIC [29]: 32 µg/mL (≈ 31.9 µM); MIC ([30]; Staphylococcus epidermidis, EPI1): 32 µg/mL (≈ 31.9 µM)
2 | CCC1CC(C)C(=O)C=CC(C)=CC(CN2CCCCCCC2)C(CC)OC(=O)CC(O)C(C)C1OC1OC(C)C(OC(C)=O)C(N(C)C)C1OC(C)=O (stereo not drawn) [Compound 57] | 0.78 (≈ 1.02 µM) | 0.78 (≈ 1.02 µM) | 0.78 (≈ 1.02 µM) | 1.56 (≈ 2.04 µM) | 1.56 (≈ 2.04 µM) | 1.56 (≈ 2.04 µM) | 1.56 (≈ 2.04 µM) | 0.39 (≈ 0.511 µM) |  | 1.56 (≈ 2.04 µM) |  |  |  |  |  |  |  |  |  |  | MIC [31]: 12.5 µg/mL (≈ 16.4 µM); MIC [6, 32]: 0.195 µg/mL (≈ 0.256 µM); MIC [7, 33]: 50 µg/mL (≈ 65.5 µM); MIC [8, 34]: > 50 µg/mL; MIC ([12]; broth-dilution microtiter, Mycoplasma gallisepticum, read-out: MIC): 0.78 µg/mL (≈ 1.02 µM); MIC [13, 35]: 50 µg/mL (≈ 65.5 µM)
3 | CCC1OC(=O)CC(O)C(C)C(OC2OC(C)C(OC3CC(C)(O)C(O)C(C)O3)C(N(C)C)C2O)C(CCN2C(=O)c3ccccc3C2=O)CC(C)C(=O)C=CC(C)=CC1CO (stereo not drawn) [Compound 17, 20-N-Phthalimido-20-deoxy-20-dihydro-DMT] | > 50 | > 50 | > 50 | > 50 | > 50 | > 50 | > 50 | > 50 | 12.5 (≈ 14.3 µM) | > 50 | > 128 | 64 (≈ 73.3 µM) | > 128 | > 128 | > 128 | > 128 | > 128 | 16 (≈ 18.3 µM) | 128 (≈ 147 µM) | > 128 | MIC [6, 32]: 50 µg/mL (≈ 57.3 µM); MIC [7, 33]: 50 µg/mL (≈ 57.3 µM); MIC [8, 34]: 50 µg/mL (≈ 57.3 µM); MIC [13, 35]: 50 µg/mL (≈ 57.3 µM); MIC ([15]; Staphylococcus aureus, V41): 64 µg/mL (≈ 73.3 µM); MIC [26]: 64 µg/mL (≈ 73.3 µM); MIC [27]: > 128 µg/mL; MIC [28]: 32 µg/mL (≈ 36.7 µM); MIC [29]: 64 µg/mL (≈ 73.3 µM); MIC ([30]; agar-dilution, Staphylococcus epidermidis EPI1, read-out: MIC): 32 µg/mL (≈ 36.7 µM)
